Values of other authors as cited in patent US20250241296A1, “HIGH-LOAD AGRICULTURAL FORMULATIONS AND METHODS OF MAKING SAME” (priority 2022, published 2025).

How the values were obtained:
[1] = footnote a: values from the Chemistry Dashboard of the US Environmental Protection Agency
[2] = footnote a: values from the Chemistry Dashboard of the US Environmental Protection Agency; remark: listed apart in the source

Compound | Density [1] | Solubility in Water [2]
CO/C=C(/C(=O)OC)c1ccccc1COc1cccc(C(F)(F)F)n1 [Picoxystrobin] | 1.28^a g/mL | 8.30^a mg/L
CO/C=C(/C(=O)OC)c1ccccc1Oc1cc(Oc2ccccc2C#N)ncn1 [Azoxystrobin] | 1.34^a g/mL | 6.01^a mg/L
COC(=O)N(OC)c1ccccc1COc1ccn(-c2ccc(Cl)cc2)n1 [Pyraclostrobin] | 1.34^a g/mL | 
Abamectin | 1.28^a g/mL | 36.4^a mg/L
CN1COCN(Cc2cnc(Cl)s2)/C1=N\[N+](=O)[O-] [Thiamethoxam] | 1.76^a g/mL | 
O=[N+]([O-])c1cc(C(F)(F)F)c(Cl)c([N+](=O)[O-])c1Nc1ncc(C(F)(F)F)cc1Cl [Fluazinam] | 1.80^a g/mL | 
CNC(=O)/C(=N/OC)c1ccccc1Oc1ccccc1 [Metominostrobin] | 1.13^a g/mL | 
COC(=O)Nc1nc2ccccc2[nH]1 [Carbendazim] | 1.39^a g/mL | 
N#Cc1c[nH]cc1-c1cccc2c1OC(F)(F)O2 [Fludioxinil] | 1.54^a g/mL | 
Cc1nn(C)c(F)c1C(=O)Nc1ccccc1C(C)CC(C)C (stereo not drawn) [Penflufen] | 1.18^a g/mL | 
Spinosad | 1.20^a g/mL | 295^a mg/L
Fc1ccc([C@]2(Cn3cncn3)O[C@H]2c2ccccc2Cl)cc1 (racemic) [Epoxiconazole] | 1.42^a g/mL | 
CC(C1CC1)C(O)(Cn1cncn1)c1ccc(Cl)cc1 (stereo not drawn) [Cyproconazole] | 1.31^a g/mL | 
Cc1cc(C(F)(C(F)(F)F)C(F)(F)F)ccc1NC(=O)c1cccc(I)c1C(=O)NC(C)(C)CS(C)(=O)=O [Flubendiamide] | 1.78^a g/mL | 
CCCC1COC(Cn2cncn2)(c2ccc(Cl)cc2Cl)O1 (stereo not drawn) [Propiconazole] | 1.39^a g/mL | 
N#Cc1ccccc1NC(=O)c1snc(Cl)c1Cl [Isotianil] | 1.56^a g/mL | 
CNC(=O)c1cc(Cl)cc(C)c1NC(=O)c1cc(Br)nn1-c1ncccc1Cl [Chlorantraniliprole] | 1.65^a g/mL | 
COCC(=O)N(c1c(C)cccc1C)[C@H](C)C(=O)OC [Metalaxyl-M] | 1.09^a g/mL | 
CC(c1ccc(C(F)(F)F)nc1)S(C)(=O)=NC#N (stereo not drawn) [Sulfoxaflor] | 1.34^a g/mL | 
Spinetoram | 1.18^a g/mL | 162^a mg/L
CNC(=O)c1cc(C#N)cc(C)c1NC(=O)c1cc(Br)nn1-c1ncccc1Cl [Cyantraniliprole] | 1.65^a g/mL | 
CC12CC1(C)C(=O)N(c1cc(Cl)cc(Cl)c1)C2=O (stereo not drawn) [Procymidone] | 1.43^a g/mL | 
